Legend:
human Nav1.1 = biological target: T1, human Nav1.1 (Homo sapiens, UniProt P35498); assay: Amplification of Nav1.1-derived voltage-dependent sodium current (Nav1.1 current), cell line stably expressing human Nav1.1, automated patch clamp; format: cell-based; details: for activation at 10 µM: read-out: Nav1.1 current amplification rate (%)
T1 construct: host or cells: HEK293
Outline: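 Automated whole-cell voltage-clamp recordings used HEK293 cells stably expressing human Nav1.1, keeping only cells with >500 pA current, with currents evoked by ramp voltage. Compounds were applied in extracellular fluid with 1% DMSO, and amplification (%) was computed from peak current or AUC after versus before addition.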

human Nav1.5 = biological target: T2, human Nav1.5 (Homo sapiens, UniProt Q14524); assay: Amplification of Nav1.5-derived voltage-dependent sodium current (Nav1.5 current), cell line stably expressing human Nav1.5, automated patch clamp; format: cell-based; details: for activation at 10 µM: read-out: Nav1.5 current amplification rate (%)
T2 construct: expressed in transfected cells; host or cells: CHO-K1 (T-REx System, ThermoFisher Scientific)

[1] = compound 3 μmol/L, HEK293 stably expressing human Nav1.1
[2] = compound 3 μmol/L, CHO-K1 stably expressing human Nav1.5
[3] = 10 μmol/L compound, change of the area under the curve of Nav1.1 current (Test Result 1)
[4] = 10 μmol/L compound, change of the area under the curve of Nav1.5 current (Test Result 1)
[5] = compound 1 μmol/L, HEK293 stably expressing human Nav1.1
[6] = compound 1 μmol/L, CHO-K1 stably expressing human Nav1.5

T2 sequence (Q14524 1-2015 isoform Q14524-2): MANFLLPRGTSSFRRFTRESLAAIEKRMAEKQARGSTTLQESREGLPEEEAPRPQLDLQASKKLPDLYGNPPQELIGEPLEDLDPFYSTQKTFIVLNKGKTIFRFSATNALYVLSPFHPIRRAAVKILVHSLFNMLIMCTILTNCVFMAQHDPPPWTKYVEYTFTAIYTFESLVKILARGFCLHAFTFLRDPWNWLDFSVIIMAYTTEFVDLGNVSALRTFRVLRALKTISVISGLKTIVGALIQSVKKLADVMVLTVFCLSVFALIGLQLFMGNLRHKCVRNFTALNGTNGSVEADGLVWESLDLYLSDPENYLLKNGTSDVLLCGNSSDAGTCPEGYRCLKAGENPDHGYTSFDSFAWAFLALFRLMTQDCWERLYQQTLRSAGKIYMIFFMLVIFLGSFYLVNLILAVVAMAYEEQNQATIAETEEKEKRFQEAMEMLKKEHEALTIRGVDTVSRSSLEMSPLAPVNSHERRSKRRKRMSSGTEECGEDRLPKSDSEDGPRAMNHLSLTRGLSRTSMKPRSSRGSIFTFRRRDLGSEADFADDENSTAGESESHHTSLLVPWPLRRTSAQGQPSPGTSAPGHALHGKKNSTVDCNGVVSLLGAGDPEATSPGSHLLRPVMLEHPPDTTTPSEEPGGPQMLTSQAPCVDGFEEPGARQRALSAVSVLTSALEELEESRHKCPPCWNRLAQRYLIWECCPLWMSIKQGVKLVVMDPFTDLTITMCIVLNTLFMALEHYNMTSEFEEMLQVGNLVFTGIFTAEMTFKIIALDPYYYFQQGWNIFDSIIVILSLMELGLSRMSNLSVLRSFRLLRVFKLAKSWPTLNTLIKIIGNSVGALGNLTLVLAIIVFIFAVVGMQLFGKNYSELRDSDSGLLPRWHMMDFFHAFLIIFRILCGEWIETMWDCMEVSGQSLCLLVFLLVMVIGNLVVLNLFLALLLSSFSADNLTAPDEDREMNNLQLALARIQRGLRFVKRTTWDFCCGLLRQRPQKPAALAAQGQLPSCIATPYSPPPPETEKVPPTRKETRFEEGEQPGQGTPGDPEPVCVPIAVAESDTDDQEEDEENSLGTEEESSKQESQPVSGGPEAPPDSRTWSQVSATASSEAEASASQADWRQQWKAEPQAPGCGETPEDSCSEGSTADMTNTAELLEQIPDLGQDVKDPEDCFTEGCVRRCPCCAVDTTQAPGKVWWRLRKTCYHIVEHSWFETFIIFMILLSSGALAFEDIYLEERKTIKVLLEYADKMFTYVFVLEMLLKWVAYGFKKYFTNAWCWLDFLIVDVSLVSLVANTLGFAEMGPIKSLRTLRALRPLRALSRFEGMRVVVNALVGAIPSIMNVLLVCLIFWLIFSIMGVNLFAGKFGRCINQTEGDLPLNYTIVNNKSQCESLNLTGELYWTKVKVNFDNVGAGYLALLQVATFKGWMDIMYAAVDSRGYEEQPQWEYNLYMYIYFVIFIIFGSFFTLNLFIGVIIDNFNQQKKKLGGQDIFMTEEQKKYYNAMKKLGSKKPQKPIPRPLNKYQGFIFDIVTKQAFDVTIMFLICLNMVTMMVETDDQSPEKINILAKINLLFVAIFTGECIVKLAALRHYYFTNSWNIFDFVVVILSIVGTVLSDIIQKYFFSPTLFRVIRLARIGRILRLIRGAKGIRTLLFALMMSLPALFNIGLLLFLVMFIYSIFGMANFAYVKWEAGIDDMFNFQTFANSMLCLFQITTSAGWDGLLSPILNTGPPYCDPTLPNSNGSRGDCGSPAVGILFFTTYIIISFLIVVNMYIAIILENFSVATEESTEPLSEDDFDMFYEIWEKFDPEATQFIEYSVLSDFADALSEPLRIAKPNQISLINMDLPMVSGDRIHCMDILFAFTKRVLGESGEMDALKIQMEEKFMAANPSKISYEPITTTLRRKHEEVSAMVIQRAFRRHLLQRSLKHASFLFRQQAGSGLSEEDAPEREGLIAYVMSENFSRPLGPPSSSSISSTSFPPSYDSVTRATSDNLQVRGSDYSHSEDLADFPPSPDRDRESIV

Row | SMILES | Nav1.1 current amplification rate (%) (human Nav1.1; [3]) | activation at 10 µM (human Nav1.1; [3]) | Nav1.5 current amplification rate (%) (human Nav1.5; [4]) | activation at 10 µM (human Nav1.5; [4]) | further results
1 | CC1CC=C(c2ccc(=O)n(CC(=O)N3CCc4c(-c5ccnnc5)cccc43)n2)CC1 (racemic) [Example 253] |  |  |  |  | Nav1.1 current amplification rate (%) (human Nav1.1; [1]): 455%; Nav1.5 current amplification rate (%) (human Nav1.5; [2]): 85%
2 | CC1CC=C(c2ccc(=O)n(CC(=O)N3CC=C(c4cccnc4)CC3)n2)CC1 (centres unmarked) [Example 402] | 323% |  | 21% |  | 
3 | CC1CC=C(c2ccc(=O)n(CC(=O)Nc3ccc4oc(C(C)(C)O)nc4c3)n2)CC1 (racemic) [Example 327] |  |  |  |  | Nav1.1 current amplification rate (%) (human Nav1.1; [1]): 124%; Nav1.5 current amplification rate (%) (human Nav1.5; [2]): 9%
4 | COc1cc(C2=CCC(C)CC2)nn(CC(=O)Nc2ccc3ocnc3c2)c1=O (centres unmarked) [Example 449] | 250% |  | 12% |  | 
5 | Cc1cc(NC(=O)Cn2nc(C3=CCC(C)CC3)ccc2=O)cc2ncnn12 (racemic) [Example 352] |  |  |  |  | Nav1.1 current amplification rate (%) (human Nav1.1; [5]): 155%; Nav1.5 current amplification rate (%) (human Nav1.5; [6]): 34%
6 | CC1CC=C(c2ccc(=O)n(CC(=O)N3CCc4c(-c5ccncc5)cccc43)n2)CC1 (racemic) [Example 250] |  |  |  |  | Nav1.1 current amplification rate (%) (human Nav1.1; [1]): 564%; Nav1.5 current amplification rate (%) (human Nav1.5; [2]): 121%
7 | CC1CC=C(c2ccc(=O)n(CC(=O)N3CCc4c(CN5CCCC5)cccc43)n2)CC1 (racemic) [Example 271] |  |  |  |  | Nav1.1 current amplification rate (%) (human Nav1.1; [1]): 48%; Nav1.5 current amplification rate (%) (human Nav1.5; [2]): 70%
8 | CC1CC=C(c2ccc(=O)n(CC(=O)Nc3ccnc(C#N)c3)n2)CC1 (racemic) [Example 362] |  |  |  |  | Nav1.1 current amplification rate (%) (human Nav1.1; [5]): 133%; Nav1.5 current amplification rate (%) (human Nav1.5; [6]): 24%
9 | CC1(C)CC=C(c2ccc(=O)n(CC(=O)N3CCc4c(N5CCOCC5)cccc43)n2)C1 [Example 475] | 633% |  | 70% |  | 
10 | CC1CC=C(c2ccc(=O)n(CC(=O)N3CCc4c3ccnc4N3CCOCC3)n2)CC1 (racemic) [Example 319] |  |  |  |  | Nav1.1 current amplification rate (%) (human Nav1.1; [5]): 134%; Nav1.5 current amplification rate (%) (human Nav1.5; [6]): 30%
11 | COc1cc(C2=CCC(C(F)(F)F)CC2)nn(CC(=O)Nc2ccc3ocnc3c2)c1=O (centres unmarked) [Example 447] | 148% |  | 6% |  | 
12 | CC1(C)CC=C(c2ccc(=O)n(CC(=O)N3CCc4c(N5CCOCC5)cccc43)n2)CC1 [Example 432] |  |  |  |  | Nav1.1 current amplification rate (%) (human Nav1.1; [5]): 280%; Nav1.5 current amplification rate (%) (human Nav1.5; [6]): 16%

The next lines start with results.

Row | Nav1.1 current amplification rate (%) (human Nav1.1; [3]) | activation at 10 µM (human Nav1.1; [3]) | SMILES | Nav1.5 current amplification rate (%) (human Nav1.5; [4]) | activation at 10 µM (human Nav1.5; [4]) | further results
13 |  | 314% | CC1(C)CCC=C(c2ccc(=O)n(CC(=O)Nc3ccc4ocnc4c3)n2)C1 [Example 129] |  | 25% | 
14 |  | 219% | Cc1cc(N2CCC3(CCCC3)C2)nn(CC(=O)Nc2ccc3ocnc3c2)c1=O [Example 193] |  | 0% | 
15 | 78% |  | CC1CCN(c2ccc(=O)n(CC(=O)Nc3cccc(-c4ncco4)c3)n2)CC1 [Example 78] | 4% |  | 
16 |  | 169% | O=C(Cn1nc(N2CCC3(CCC3)C2)ccc1=O)Nc1ccn2ccnc2c1 [Example 177] |  | 16% | 
17 | 131% |  | Cc1ccc(-c2ccc(=O)n(CC(=O)Nc3ccc4ocnc4c3)n2)s1 [Example 455] | 21% |  | 
18 | 244% |  | CC1(C)CC=C(c2ccc(=O)n(CC(=O)Nc3ccc4c(c3)OCC4)n2)CC1 [Example 426] | 20% |  | 
19 |  | 35% | O=C(Cn1nc(N2CCC3(CCC3)C2)ccc1=O)N1CCc2cc(N3CCOCC3)ccc21 [Example 184] |  | 16% | 
20 |  | 83% | O=C(Cn1nc(C2=CCC(F)(F)CC2)ccc1=O)Nc1ccnc(C(F)(F)F)c1 [Example 114] |  | 12% | 
21 |  | 24% | CC1(C)CC=C(c2ccc(=O)n(CC(=O)N3CCN(c4cccnc4)CC3)n2)C1 [Example 508] |  | -3% | 
22 |  | 108% | O=C(Cn1nc(N2CCCC3(CCCC3)C2)ccc1=O)Nc1ccc2ocnc2c1 [Example 132] |  | -2% | 
23 |  | 37% | Cc1cnc2cc(NC(=O)Cn3nc(N4CCC(C)CC4)ccc3=O)ccn12 [Example 232] |  | 8% | 
24 |  | 205% | N#Cc1ccc(NC(=O)Cn2nc(N3CCC4(CCC4)CC3)ccc2=O)cn1 [Example 124] |  | 70% | 
25 | 157% |  | O=C(Cn1nc(-c2cc(Cl)cs2)ccc1=O)Nc1ccc2ocnc2c1 [Example 454] | 35% |  | 
